According to patent publication US9302999B2, “Substituted triazoles as herbicides” (E. I. DU PONT DE NEMOURS AND COMPANY, priority 2012, dated 2016):

What was measured:
Assay type in all cases: in vivo
[1] = test system: barnyardgrass (Echinochloa crus-galli); assay: Test B flooded paddy: barnyardgrass; conditions: Flood, applied to paddy water at 2-leaf stage, visually evaluated after 13 to 15 days
How it was run: (§1)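 Flooded-pot test: compound dosed into 3 cm of standing water above soil when plants had two leaves. Visual control ratings (0–100) versus untreated plants after 13–15 d.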

corn (Zea mays) = assay: Test A pre-/postemergence: corn
How it was run: (§2)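 Injury is scored visually on a scale where 0 means no effect and 100 complete control, comparing treated with untreated plants after approximately ten greenhouse days. Both preemergence and postemergence applications are made at the same time.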

[2] = test system: foxtail, giant (giant foxtail, Setaria faberii); assay: Test A pre-/postemergence: foxtail, giant
How it was run: as §2

[3] = test system: wheat (Triticum aestivum); assay: Test A pre-/postemergence: wheat
How it was run: as §2

[4] = test system: barnyardgrass (Echinochloa crus-galli); assay: Test A pre-/postemergence: barnyardgrass
How it was run: as §2

[5] = test system: velvetleaf (Abutilon theophrasti); assay: Test A pre-/postemergence: velvetleaf
How it was run: as §2

[6] = test system: pigweed (Amaranthus retroflexus); assay: Test A pre-/postemergence: pigweed
How it was run: as §2

[7] = test system: ducksalad (Heteranthera limosa); assay: Test B flooded paddy: ducksalad; conditions: Flood, applied to paddy water at 2-leaf stage, visually evaluated after 13 to 15 days
How it was run: as §1

[8] = test system: crabgrass, large (large crabgrass, Digitaria sanguinalis); assay: Test A pre-/postemergence: crabgrass, large
How it was run: as §2

[9] = test system: morningglory (Ipomoea spp.); assay: Test A pre-/postemergence: morningglory
How it was run: as §2

rice (Oryza sativa) = assay: Test B flooded paddy: rice; conditions: Flood, applied to paddy water at 2-leaf stage, visually evaluated after 13 to 15 days
How it was run: as §1

[10] = test system: sedge, umbrella (small-flower umbrella sedge Cyperus difformis); assay: Test B flooded paddy: sedge, umbrella; conditions: Flood, applied to paddy water at 2-leaf stage, visually evaluated after 13 to 15 days
How it was run: as §1

[11] = Postemergence, 125 g ai/ha, 0 to 100 scale, 0 is no effect, 100 is complete control
[12] = Postemergence, 500 g ai/ha, 0 to 100 scale, 0 is no effect, 100 is complete control
[13] = Preemergence, 125 g ai/ha, 0 to 100 scale where 0 is no effect and 100 is complete control
[14] = Preemergence, 500 g ai/ha, 0 to 100 scale (0 no effect, 100 complete control)

Row | SMILES | Plant response rating, Corn (corn (Zea mays); [11]) | Corn plant response rating (corn (Zea mays); [12]) | Plant response rating, Corn (corn (Zea mays); [13]) | Plant response rating, Corn (corn (Zea mays); [14]) | Plant response rating, Foxtail, Giant [2, 11] | Foxtail, Giant plant response rating [2, 12] | Plant response rating, Foxtail, Giant [2, 13] | Plant response rating, Foxtail, Giant [2, 14] | Plant response rating, Wheat [3, 11] | Wheat plant response rating [3, 12] | Plant response rating, Wheat [3, 13] | Plant response rating, Wheat [3, 14] | Plant response rating, Barnyardgrass [4, 11] | Barnyardgrass plant response rating [4, 12] | Plant response rating, Barnyardgrass [4, 13] | Plant response rating, Barnyardgrass [4, 14] | Plant response rating, Velvetleaf [5, 11] | Velvetleaf plant response rating [5, 12] | Plant response rating, Velvetleaf [5, 13] | Plant response rating, Velvetleaf [5, 14] | further results
1 | CC(=O)Oc1nn(-c2ccc(C(F)(F)F)cc2)nc1Cc1ccnc(C(F)(F)F)c1 [Compound 197] | 0 | 20 | 0 | 0 | 10 | 40 | 0 | 0 | 0 | 0 | 0 | 0 | 0 | 10 | 0 | 0 | 20 | 30 | 0 | 0 | Plant response rating, Barnyardgrass (0 to 100 scale, 0 is no effect, 100 is complete control) ([1]; 250 g ai/ha): 0; Plant response rating, Pigweed [6, 11]: 30; Pigweed plant response rating [6, 12]: 70; Plant response rating, Pigweed [6, 13]: 0; Plant response rating, Pigweed [6, 14]: 0; Plant response rating, Ducksalad (0 to 100 scale, 0 is no effect, 100 is complete control) ([7]; 250 g ai/ha): 0; Plant response rating, Crabgrass, Large [8, 11]: 10; Crabgrass, Large plant response rating [8, 12]: 20; Plant response rating, Crabgrass, Large [8, 13]: 0; Plant response rating, Crabgrass, Large [8, 14]: 0; Plant response rating, Morningglory [9, 11]: 30; Morningglory plant response rating [9, 12]: 40; Plant response rating, Morningglory [9, 13]: 0; Plant response rating, Morningglory [9, 14]: 0; Plant response rating, Rice (0 to 100 scale, 0 is no effect, 100 is complete control) (rice (Oryza sativa); 250 g ai/ha): 0; Plant response rating, Sedge, Umbrella (0 to 100 scale, 0 is no effect, 100 is complete control) ([10]; 250 g ai/ha): 0
2 | Oc1nn(-c2ccc(C(F)(F)F)cc2)nc1Cc1ccnc(C(F)(F)F)c1 [Compound 198] | 0 | 10 | 0 | 0 | 0 | 10 | 0 | 0 | 0 | 0 | 0 | 0 | 0 | 0 | 0 | 0 | 10 | 10 | 0 | 0 | Plant response rating, Barnyardgrass (0 to 100 scale, 0 is no effect, 100 is complete control) ([1]; 250 g ai/ha): 0; Plant response rating, Pigweed [6, 11]: 10; Pigweed plant response rating [6, 12]: 50; Plant response rating, Pigweed [6, 13]: 0; Plant response rating, Pigweed [6, 14]: 0; Plant response rating, Ducksalad (0 to 100 scale, 0 is no effect, 100 is complete control) ([7]; 250 g ai/ha): 0; Plant response rating, Crabgrass, Large [8, 11]: 0; Crabgrass, Large plant response rating [8, 12]: 10; Plant response rating, Crabgrass, Large [8, 13]: 0; Plant response rating, Crabgrass, Large [8, 14]: 0; Plant response rating, Morningglory [9, 11]: 10; Morningglory plant response rating [9, 12]: 20; Plant response rating, Morningglory [9, 13]: 0; Plant response rating, Morningglory [9, 14]: 0; Plant response rating, Rice (0 to 100 scale, 0 is no effect, 100 is complete control) (rice (Oryza sativa); 250 g ai/ha): 0; Plant response rating, Sedge, Umbrella (0 to 100 scale, 0 is no effect, 100 is complete control) ([10]; 250 g ai/ha): 0
3 | FC(F)(F)c1cccc(-n2nc(Oc3ccnc(C(F)(F)F)c3)c(C3CC3)n2)c1 [Compound 199] | 10 | 20 | 0 | 0 | 10 | 20 | 0 | 50 | 0 | 0 | 0 | 0 | 10 | 10 | 0 | 0 | 10 | 10 | 0 | 0 | Plant response rating, Barnyardgrass (0 to 100 scale, 0 is no effect, 100 is complete control) ([1]; 125 g ai/ha): 0; Plant response rating, Pigweed [6, 11]: 20; Pigweed plant response rating [6, 12]: 60; Plant response rating, Pigweed [6, 13]: 10; Plant response rating, Pigweed [6, 14]: 30; Plant response rating, Ducksalad (0 to 100 scale, 0 is no effect, 100 is complete control) ([7]; 125 g ai/ha): 0; Plant response rating, Crabgrass, Large [8, 11]: 10; Crabgrass, Large plant response rating [8, 12]: 20; Plant response rating, Crabgrass, Large [8, 13]: 20; Plant response rating, Crabgrass, Large [8, 14]: 70; Plant response rating, Morningglory [9, 11]: 10; Morningglory plant response rating [9, 12]: 20; Plant response rating, Morningglory [9, 13]: 0; Plant response rating, Morningglory [9, 14]: 0; Plant response rating, Rice (0 to 100 scale, 0 is no effect, 100 is complete control) (rice (Oryza sativa); 125 g ai/ha): 0; Plant response rating, Sedge, Umbrella (0 to 100 scale, 0 is no effect, 100 is complete control) ([10]; 125 g ai/ha): 0
4 | FC(F)(F)c1cccc(-n2nc(Oc3ccnc(C(F)(F)F)c3)c(C3CC3)n2)c1 [Compound 200] | 10 | 20 | 0 | 0 | 10 | 20 | 70 | 100 | 0 | 0 | 0 | 0 | 0 | 10 | 0 | 0 | 10 | 40 | 0 | 0 | Plant response rating, Barnyardgrass (0 to 100 scale, 0 is no effect, 100 is complete control) ([1]; 125 g ai/ha): 0; Plant response rating, Pigweed [6, 11]: 50; Pigweed plant response rating [6, 12]: 100; Plant response rating, Pigweed [6, 13]: 50; Plant response rating, Pigweed [6, 14]: 100; Plant response rating, Ducksalad (0 to 100 scale, 0 is no effect, 100 is complete control) ([7]; 125 g ai/ha): 0; Plant response rating, Crabgrass, Large [8, 11]: 10; Crabgrass, Large plant response rating [8, 12]: 40; Plant response rating, Crabgrass, Large [8, 13]: 80; Plant response rating, Crabgrass, Large [8, 14]: 100; Plant response rating, Morningglory [9, 11]: 10; Morningglory plant response rating [9, 12]: 30; Plant response rating, Morningglory [9, 13]: 0; Plant response rating, Morningglory [9, 14]: 10; Plant response rating, Rice (0 to 100 scale, 0 is no effect, 100 is complete control) (rice (Oryza sativa); 125 g ai/ha): 0; Plant response rating, Sedge, Umbrella (0 to 100 scale, 0 is no effect, 100 is complete control) ([10]; 125 g ai/ha): 0
